The source of these data is PMC7043877, “Synthesis and evaluation of a prodrug of 5-aminosalicylic acid for the treatment of ulcerative colitis” (Iranian Journal of Basic Medical Sciences, 2019).

Data set [1] in a line: Pharmacokinetic study in rats after oral administration. The class given is in vivo, rat. The method, then: Twelve male Sprague-Dawley rats were randomly divided in two groups (n=6), the 5-ASA-ALA group and 5-ASA group. Rats were orally administered with a certain amount of 5-ASA-ALA (equivalent to 50 mg/kg of 5-ASA) and 5-ASA. At 0.25, 0.5, 1, 2, 4, 6 and 8 hr, blood samples were collected from the jugular vein and then centrifuged at 13000 g, 4 °C for 5 min to separate plasma. The plasma sample (0.1 ml) was mixed with methanol (0.4 ml), vortexed for 5 min and then centrifuged again. Finally, the supernatant was obtained, dried under nitrogen, dissolved in methanol and used for HPLC detection.

A short description of data set [2]: Stability study of 5-ASA-ALA in rat plasma and stomach, small intestine and colon contents (room temperature storage, freezing-thawing). As to conditions: all tissue samples at 0.4, 1.6 and 6.4 μg/ml, both storage conditions. The class given is in vitro ADME. The method, then:
This study was tested at three concentration levels of 5-ASA-ALA to evaluate its in vitro stability in tissue samples and validate the HPLC method for 5-ASA-ALA analysis under different conditions. Briefly, five rats were anesthetized and sacrificed, and their abdomen was cut open through the middle. Their stomach contents, small intestine contents and colon contents were collected and mixed with hydrochloric acid buffer (pH=1.2) and phosphate buffered saline (PBS) (pH=6.8 and 7.4), respectively, and homogenized to 20% (w/v). Then 1.0 ml of 5-ASA-ALA solution (dissolved in corresponding buffers) was mixed with the same volume of rat plasma, freshly prepared stomach contents, small intestine contents and colon contents, respectively, with the final concentration of 0.4, 1.6 and 6.4 μg/ml. Samples were divided into two groups, stored at room temperature for 10 hr or went through the freezing-thawing cycles twice. At the end of the storage and the freezing-thawing cycle, samples were centrifuged at 13000 g for 10 min and mixed with methanol (0.4 ml), then the mixture was vortexed and centrifuged again. Finally, the supernatant was collected, concentrated with nitrogen, and dissolved in methanol for HPLC analysis ([15]). Each concentration level was tested five times and the RSD was calculated respectively.

Data set [3] has as its system Caco-2 cells. As to the kind of experiment: Transport study across Caco-2 monolayers (Papp). It counts as in vitro ADME, human. As to conditions: compared with propranolol. The method, then: (§1) Caco-2 cells were grown in DEME medium containing 10% FBS, 100 unit/ml peniciline, 100 µg/ml streptomycine, 2 mM glutamine, 1% sodium pyruvate and 1% non-essential amino acids at 37 °C in a humidified atmosphere of 95% air and 5% CO2. Cells were seeded on polycarbonate membranes (Transwell, diameter 24 mm, pore size 0.4 μm, Corning Costar, NY, USA) at 1×10^5 cells/well in a 6-well plate ([16]). Propranolol was used as a positive control.
(§2) Eight days later, Caco-2 cells reached 100% confluence and then were cultured for 18 days more. The culture medium was discarded, and then the apical (AP) and basal (BL) chambers were washed for 3 times with PBS. The culture medium was then replaced with 1 ml of propranolol or 5-ASA-ALA solution ([…]) in the AP chamber. In the BL chamber, 2 ml of PBS was added instead of the culture medium. The plate was incubated at 37 °C in an atmosphere of 95% air and 5% CO2 ([17]). After 0, 2, 4, 6, and 8 hr of incubation, the concentration of propranolol and 5-ASA-ALA in the BL chamber was measured by HPLC method, and the apparent permeability coefficient (Papp) of drugs was calculated as follows: […]
(§3) where dQ/dt (μmol/s) is the transport rate, C0 (μmol/cm^3) is the initial concentration in the donor chamber, and A (cm^2) is the surface area of insert filter membrane. Experiments were performed in triplicate.
For orientation: Caco-2 cells form a polarised layer with tight junctions and transporters.

The nature of data set [4]: Transport study across Caco-2 monolayers (Papp). The class given is in vitro ADME, human. As to conditions: human, Caco-2. On the procedure: as §1, §2, §3
Data set [5] deals with TNBS-induced colitis. The data set can be described thus: TNBS-induced colitis: disease activity index (DAI). As to conditions: compared with the positive control. It counts as in vivo, mice. The method, then:
(§4) Colitis induction was performed based on the previous study ([20]). After a 12 hr of fast, mice were anesthetized with pentobarbital sodium (40 mg/kg of body weight). TNBS solution (0.1 ml dissolved in 50% ethanol, 2.5%) was injected into the colon of mice (3.5-4 cm from the anus), and then mice were kept head downward for 30 sec to prevent drug leakage. Twenty-four hr after the injection of TNBS, mice were administrated once daily for five continuous days with different drugs. Briefly, mice in treatment groups were administrated with a given dose of drugs by gavage (0.1 ml, equivalent to 100 mg/kg of 5-ASA) ([21]). Besides, mice in the control group and the positive group received a same volume of normal saline, and a physical mixture of 5-ASA and alanine, respectively. Forty-eight mice were randomly divided into four groups (n=12): 1) control (intragastric-gavage (ig), normal saline, no colitis induced), 2) TNBS (ig, normal saline), 3) positive (ig, 100 mg/kg 5-ASA+56 mg/kg alanine, dissolved in normal saline), 4) 5-ASA-ALA (ig, 156 mg/kg, dissolved in normal saline).
The disease activity index (DAI) of mice was scored and recorded daily from day 1 according to the scoring criteria (Table 1). […] The degree of fecal occult blood was evaluated by the ο-tolidine method ([22]), and scored based on the criteria reported by Kohn and kelly ([23]).

The subject of data set [6] is GSH, MDA, GSH-Px and SOD in colonic tissues. As to the kind of experiment: TNBS-induced colitis: levels of GSH, MDA, GSH-Px and SOD in colonic tissues. The class given is in vivo, mice. As to conditions: P<0.01. On the procedure:
as §4
Clean and dried colonic tissues were homogenized in ice-cold normal saline, the resulting homogenate (10%, w/v) was centrifuged at 4 °C, 13000 g for 15 min. The obtained supernatant was diluted with normal saline to 1% (w/v), and the protein levels in the supernatant were measured by a BCA protein assay kit. The levels of GSH and MDA, and the activity of GSH-Px and SOD in the colonic tissues were measured by assay kits according to the provider’s instructions.

In data set [7] the test system is MPO activity in colonic tissues. The data set can be described thus: TNBS-induced colitis: MPO activity in colonic tissues. As to conditions: P<0.01. It counts as in vivo, mice. The method, then: as §4
Colonic tissue samples were cleaned, dried and then suspended in HTAB solution (0.5%, pH=7.4), the final concentration of the tissue samples was 50 g/l. […] Finally, MPO activity in colonic tissues was detected by an assay kit according to the provider’s instructions.

The test system of data set [8] is TNBS-induced colitis. The data set can be described thus: TNBS-induced colitis: survival rate and body weight of mice. The class given is in vivo. As to conditions: ig equivalent to 100 mg/kg of 5-ASA, once daily 5 days. On the procedure: as §4
From day 0 of colitis induction, the body weight of each mouse and the death of each group were recorded daily. Finally, the degree of TNBS-induced colitis in mice of each group was evaluated based on the curves of weight changes and the final survival rate of mice for each group.

Data set [9] is described as follows: In vitro incubation with colon contents of rats. It counts as in vitro ADME, rat. On the procedure: Four g of colon contents of rats (n=6) were collected and mixed with 5-ASA-ALA solution (0.1 g/ml) in PBS (pH=7.4, 40 ml), the mixture was incubated under nitrogen atmosphere at 37 °C. At the time point of 0, 1, 2, 3, 4, 5, 6, 7, 8, 9 and 10 hr, the mixture (0.5 ml) was sampled and replaced with an equivalent volume of PBS. Samples were then centrifuged and filtered, the concentration of 5-ASA was detected by HPLC method. The experiment was conducted at seven concentration levels of 5-ASA-ALA (27.5, 50.0, 72.5, 105.0, 150.0, 200.0 and 305.0 μg/ml). The hydrolysis curve of each concentration was drawn, the linear regression was made to obtain regression equations, and the slope of each curve was regarded as the hydrolysis rate of 5-ASA-ALA.

Data set [10] has as its system colonic microflora. The data set can be described thus: In vivo incubation in the colon of rats (with or without clindamycin pretreatment). As to conditions: incubation in rat colon for 8 hr. The method, then: Rats were randomly divided into two groups (n=6), the clindamycin group and the control group. Clindamycin was used as an inhibitor of the colonic microflora. Rats were administered with a certain dose of clindamycin (25 mg/kg of body weight) and an equivalent volume of normal saline by gavage, twice daily for three days, respectively. After that, rats were anesthetized by diethyl ether, their abdomen was cut open, and then 5-ASA-ALA solution (2 mg, dissolved in 1 ml of PBS, pH=7.4) was injected into their colon, finally, their colon was tied at both ends and their abdomen was sutured immediately ([18], [19]). Eight hr later, animals were sacrificed, the colon contents of rats were collected and homogenized in PBS (pH=7.4, 40 ml). The homogenate was then centrifuged, and the supernatant was obtained and mixed with four times the volume of methanol, finally, samples were centrifuged, filtered and analyzed by HPLC. The percent of hydrolysis of 5-ASA-ALA was calculated as follows: percent of hydrolysis %=(1-Wf/Wt)×100 where Wf is the free amount of 5-ASA in the colon contents and Wi is the initial amount of 5-ASA-ALA that administered to rats.

Data set [11] has as its system TNBS-induced colitis. The data set can be described thus: TNBS-induced colitis: colonic damage score (CDS) and colon index. It counts as in vivo, mice. As to conditions: vs positive control, P<0.05. The method, then:
Colitis induction was performed based on the previous study ([20]). After a 12 hr of fast, mice were anesthetized with pentobarbital sodium (40 mg/kg of body weight). TNBS solution (0.1 ml dissolved in 50% ethanol, 2.5%) was injected into the colon of mice (3.5-4 cm from the anus), and then mice were kept head downward for 30 sec to prevent drug leakage. Twenty-four hr after the injection of TNBS, mice were administrated once daily for five continuous days with different drugs. Briefly, mice in treatment groups were administrated with a given dose of drugs by gavage (0.1 ml, equivalent to 100 mg/kg of 5-ASA) ([21]). […]
All mice were sacrificed on the 5th day of the experiment, their colonic tissues were excised, cut longitudinally, washed carefully with normal saline, and observed with a magnifying glass. The colonic damage score (CDS) was evaluated according to following scoring criteria: 0, no ulcer and colitis; 1, local hyperemia without ulcer; 2, ulcers without local hyperemia; 3, only one ulcerative and inflammatory lesion; 4, more than one ulcerative and inflammatory lesions; 5, more than 2 cm of continuous ulcer areas ([24]).
The entire colon samples were dried with filter papers, the length and weight of the samples were measured and recorded, respectively, in order to calculate the colon index of mice as the following formula: […]

Data set [12] has as its system Caco-2 cells. As to conditions: Caco-2 cell monolayer, known value that justifies the positive control; no reference given; cited from earlier work.
Where [13] appears, read: vs TNBS group, five days of treatment.

A word on the Tmax: it is the time from dosing to the highest level. As to `Nc1ccc(O)c(C(=O)O)c1` [5-ASA, 5-Aminosalicylic acid], the Tmax in data set [1] (male, Sprague-Dawley, rat, oral administration, 50 mg/kg of 5-ASA, plasma) was 30 min.
The Papp is a coefficient for how fast a substance crosses the barrier. Turning to `CC(NC(=O)c1cc(N)ccc1O)C(=O)O` (centres unmarked) [5-ASA-ALA, 5-Aminosalicylic acid-alanine], the “RSDs in all tissue samples” value in data set [2] is listed as below 4%. Besides, in data set [3], the “absorption in the Caco-2 monolayer” value was “significantly less than the propranolol”. The molecule also gave an apparent permeability coefficient (Papp) at 8 hr, 200 μmol/l in data set [4] (apical to basal direction, at 200 μmol/l) of 2.63 ×10⁻⁶ cm/s. Moreover, in data set [4] (apical to basal direction, at 400 μmol/l), the Papp at 8 hr, 400 μmol/l is 1.73 ×10⁻⁶ cm/s. The DAI result in data set [5] is listed as “more effective than the positive control”. Also, in [6] (setting [13]), the “GSH level in colonic tissues” value is listed as “significantly higher”, the “GSH-Px activity in colonic tissues” value was “higher activities”, the “MDA level in colonic tissues” value is reported as “significantly lower” and the “SOD activity in colonic tissues” value was “higher activities”. The “reducing the MDA level in the colon” value in data set [6] (vs positive control) is “significantly greater effect”. Further, the “MPO activity in colonic tissues” value in data set [7] (vs TNBS group) is recorded as “significantly reduced”. Also, the “MPO activity in colonic tissues” value in data set [7] (vs positive control) is on record as “obviously more effective than the positive control”. Further, the plasma concentration entry in [1] (oral, equivalent to 50 mg/kg of 5-ASA, 0-8 hr) is recorded as “not detected”. The body weight entry in data set [8] (alleviated from the third day) is “slight weight loss in the first two days”. In addition, the survival rate result in data set [8] (positive control vs 5-ASA-ALA group, n=12) is reported as “no significant difference”. In [9] (colon contents of rats, Figure 3), the “concentration of 5-ASA-ALA above which the hydrolysis rate did not increase anymore (zero-order)” value is “above 200 µg/ml”. Further, the “5-ASA released from 5-ASA-ALA” value in [9] (colon contents, PBS pH 7.4, nitrogen, 37 °C, 0-10 hr) was “gradually released”. Besides, the percent of hydrolysis in data set [10] (clindamycin group (25 mg/kg twice daily, three days), P<0.01) turned out to be 5.26%. Also, the percent of hydrolysis in [10] (control group (normal saline)) is on record as 89.14%. Moreover, in data set [11], the CDS result was “significantly greater effect than the positive control”.
`CC(C)NCC(O)COc1cccc2ccccc12` (centres unmarked) [Propranolol, reference compound] yielded a Papp at 8 hr, 100 μmol/l in [4] (detected in this study, at 100 μmol/l) of 24.8 ×10⁻⁶ cm/s. Also, the Papp in data set [12] is 27.5 ×10⁻⁶ cm/s.
